Source: patent US20220187282A1, “CARDIOMYOCYTE PROLIFERATION” (The Council of the Queensland Institute of Medical Research, priority 2019, published 2022)

Assays:
Type in all cases: biochemical
[1] = molecular target: kinases (Homo sapiens, UniProt Q05655); conditions: PRKCD (PKC delta) Z-Lyte SP; Test Conc(μM):ATP Conc(μM) 1:25
[2] = molecular target: kinases (Homo sapiens, UniProt P32298); conditions: GRK4 FRET-Z-Lyte SP; Test Conc(μM):ATP Conc(μM) 1:10
[3] = molecular target: kinases (Homo sapiens, UniProt Q9Y2K2); conditions: SIK3 FRET-Lantha SP; Test Conc(μM) 1
[4] = molecular target: kinases (Homo sapiens, UniProt Q00537); conditions: CDK17/cyclin Y FRET-Z-Lyte SP; Test Conc(μM):ATP Conc(μM) 1:50
[5] = molecular target: kinases (Homo sapiens, UniProt Q15375); conditions: EPHA7 FRET-Lantha SP; Test Conc(μM) 1
[6] = molecular target: kinases (Homo sapiens, UniProt Q12851); conditions: MAP4K2 (GCK) FRET-Z-Lyte SP; Test Conc(μM):ATP Conc(μM) 1:100
[7] = molecular target: kinases (Homo sapiens, UniProt P57058); conditions: HUNK FRET-Lantha SP; Test Conc(μM) 1
[8] = molecular target: kinases (Homo sapiens, UniProt Q9BYT3); conditions: STK33 FRET-Lantha SP; Test Conc(μM) 1
[9] = molecular target: kinases (Homo sapiens, UniProt P51451); conditions: BLK FRET-Z-Lyte SP; Test Conc(μM):ATP Conc(μM) 1:25
[10] = molecular target: kinases (Homo sapiens, UniProt Q56UN5); conditions: MAP3K19 (YSK4) FRET-Z-Lyte SP; Test Conc(μM):ATP Conc(μM) 1:5
[11] = molecular target: kinases (Homo sapiens, UniProt P36888); conditions: FLT3 Hu Phos FRET-Z-Lyte SP; Test Conc(μM):ATP Conc(μM) 1:500
[12] = molecular target: kinases (Homo sapiens, UniProt Q08345); conditions: DDR1 FRET-Lantha SP; Test Conc(μM) 1
[13] = molecular target: kinases (Homo sapiens, UniProt P06213); conditions: INSR *Mn* FRET-Z-Lyte SP; Test Conc(μM):ATP Conc(μM) 1:25
[14] = molecular target: kinases (Homo sapiens, UniProt P35916); conditions: FLT4 (VEGFR3) *Mn* Z-Lyte SP; Test Conc(μM):ATP Conc(μM) 1:5
[15] = molecular target: kinases (Homo sapiens, UniProt O00506); conditions: STK25 (YSK1) FRET-Z-Lyte SP; Test Conc(μM):ATP Conc(μM) 1:75
[16] = molecular target: kinases (Homo sapiens, UniProt O94921); conditions: CDK14(PFTK1)/cyclinY Lantha SP; Test Conc(μM) 1
[17] = molecular target: kinases (Homo sapiens, UniProt Q96PF2); conditions: STK22B (TSSK2) FRET-Z-Lyte SP; Test Conc(μM):ATP Conc(μM) 1:5
[18] = molecular target: kinases (Homo sapiens, UniProt Q13177); conditions: PAK2 (PAK65) FRET-Z-Lyte SP; Test Conc(μM):ATP Conc(μM) 1:75
[19] = molecular target: kinases (Homo sapiens, UniProt Q05397); conditions: PTK2 (FAK) FRET-Z-Lyte SP; Test Conc(μM):ATP Conc(μM) 1:50
[20] = molecular target: kinases (Homo sapiens, UniProt Q8N5S9); conditions: CAMKK1 (Alpha) FRET-Lantha SP; Test Conc(μM) 1
[21] = molecular target: kinases (Homo sapiens, UniProt Q15759); conditions: MAPK11 (p38 beta) Z-Lyte SP; Test Conc(μM):ATP Conc(μM) 1:50
[22] = molecular target: kinases (Homo sapiens, UniProt O75676); conditions: RPS6KA4 (MSK2) FRET-Z-Lyte SP; Test Conc(μM):ATP Conc(μM) 1:10
[23] = molecular target: kinases (Homo sapiens, UniProt P09769); conditions: FGR FRET-Z-Lyte SP; Test Conc(μM):ATP Conc(μM) 1:10
[24] = molecular target: kinases (Homo sapiens, UniProt Q9NR20); conditions: DYRK4 FRET-Z-Lyte SP; Test Conc(μM):ATP Conc(μM) 1:5
[25] = molecular target: kinases (Homo sapiens, UniProt Q9UHD2); conditions: TBK1 FRET-Z-Lyte SP; Test Conc(μM):ATP Conc(μM) 1:25
[26] = molecular target: kinases (Homo sapiens, UniProt P31749); conditions: AKT1 (PKB alpha) Z-Lyte SP; Test Conc(μM):ATP Conc(μM) 1:75
[27] = molecular target: kinases (Homo sapiens, UniProt Q15746); conditions: MYLK (MLCK) FRET-Lantha SP; Test Conc(μM) 1
[28] = molecular target: kinases (Homo sapiens, UniProt Q9NRM7); conditions: LATS2 FRET-Lantha SP; Test Conc(μM) 1
kinases (Homo sapiens, UniProt Q9NRM7), sequence (Q9NRM7 whole entry): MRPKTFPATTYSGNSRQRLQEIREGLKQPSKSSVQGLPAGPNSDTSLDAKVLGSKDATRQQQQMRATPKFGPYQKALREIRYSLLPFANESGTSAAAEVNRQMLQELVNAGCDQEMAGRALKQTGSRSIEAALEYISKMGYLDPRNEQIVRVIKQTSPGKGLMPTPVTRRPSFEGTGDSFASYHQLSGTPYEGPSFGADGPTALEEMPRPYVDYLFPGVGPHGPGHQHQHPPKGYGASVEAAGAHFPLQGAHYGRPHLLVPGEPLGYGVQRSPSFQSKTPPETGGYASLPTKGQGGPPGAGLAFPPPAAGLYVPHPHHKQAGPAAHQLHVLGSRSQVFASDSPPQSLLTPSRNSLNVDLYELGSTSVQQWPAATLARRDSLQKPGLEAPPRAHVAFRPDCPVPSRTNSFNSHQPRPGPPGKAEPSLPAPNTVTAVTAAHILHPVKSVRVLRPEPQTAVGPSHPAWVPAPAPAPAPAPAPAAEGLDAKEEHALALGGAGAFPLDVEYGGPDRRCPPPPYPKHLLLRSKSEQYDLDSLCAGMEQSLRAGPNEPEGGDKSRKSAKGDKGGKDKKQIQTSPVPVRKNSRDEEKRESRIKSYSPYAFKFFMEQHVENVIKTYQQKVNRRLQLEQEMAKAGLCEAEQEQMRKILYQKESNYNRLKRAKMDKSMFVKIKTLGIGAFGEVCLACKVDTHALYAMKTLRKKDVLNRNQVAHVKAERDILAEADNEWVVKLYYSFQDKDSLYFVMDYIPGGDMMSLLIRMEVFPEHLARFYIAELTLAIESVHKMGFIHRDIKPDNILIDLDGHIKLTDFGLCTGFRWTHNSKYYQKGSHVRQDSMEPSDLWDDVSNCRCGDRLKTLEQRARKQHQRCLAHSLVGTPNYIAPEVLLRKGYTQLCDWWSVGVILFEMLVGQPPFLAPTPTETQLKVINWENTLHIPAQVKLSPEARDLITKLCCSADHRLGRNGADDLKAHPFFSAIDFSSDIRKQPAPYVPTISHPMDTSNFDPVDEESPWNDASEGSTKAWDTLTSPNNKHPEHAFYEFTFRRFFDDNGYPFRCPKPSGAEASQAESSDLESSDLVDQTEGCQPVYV

kinases (Homo sapiens, UniProt P31749), sequence (P31749 whole entry): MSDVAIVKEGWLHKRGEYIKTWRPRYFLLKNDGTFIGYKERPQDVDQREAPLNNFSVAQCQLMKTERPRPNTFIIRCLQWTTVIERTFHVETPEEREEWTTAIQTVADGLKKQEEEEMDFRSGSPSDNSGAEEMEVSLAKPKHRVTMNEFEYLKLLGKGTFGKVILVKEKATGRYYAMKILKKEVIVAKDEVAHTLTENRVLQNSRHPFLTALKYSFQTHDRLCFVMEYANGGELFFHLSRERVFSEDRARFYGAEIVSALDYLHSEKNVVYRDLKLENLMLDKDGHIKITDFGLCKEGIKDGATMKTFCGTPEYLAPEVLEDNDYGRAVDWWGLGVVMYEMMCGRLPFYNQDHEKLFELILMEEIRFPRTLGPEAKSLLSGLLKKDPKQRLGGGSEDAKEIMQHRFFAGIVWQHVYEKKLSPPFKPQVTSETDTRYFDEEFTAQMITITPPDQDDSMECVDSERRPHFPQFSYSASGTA
kinases (Homo sapiens, UniProt P32298), sequence (P32298 whole entry): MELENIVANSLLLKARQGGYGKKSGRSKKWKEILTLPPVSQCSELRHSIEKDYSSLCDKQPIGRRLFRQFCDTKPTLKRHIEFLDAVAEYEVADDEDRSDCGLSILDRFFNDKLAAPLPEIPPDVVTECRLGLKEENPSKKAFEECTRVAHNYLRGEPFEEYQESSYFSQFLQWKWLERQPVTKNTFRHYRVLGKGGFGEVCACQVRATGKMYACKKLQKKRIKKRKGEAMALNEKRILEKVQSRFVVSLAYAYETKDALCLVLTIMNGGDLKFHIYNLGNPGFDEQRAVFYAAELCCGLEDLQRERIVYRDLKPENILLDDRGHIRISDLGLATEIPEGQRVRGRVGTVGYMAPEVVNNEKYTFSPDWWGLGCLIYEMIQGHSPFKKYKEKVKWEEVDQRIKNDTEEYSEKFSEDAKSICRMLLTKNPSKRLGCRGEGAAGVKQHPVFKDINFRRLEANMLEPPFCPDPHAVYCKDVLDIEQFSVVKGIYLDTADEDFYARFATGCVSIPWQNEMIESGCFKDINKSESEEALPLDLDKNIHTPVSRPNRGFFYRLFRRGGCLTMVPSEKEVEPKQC
kinases (Homo sapiens, UniProt P35916), sequence (P35916 25-1363): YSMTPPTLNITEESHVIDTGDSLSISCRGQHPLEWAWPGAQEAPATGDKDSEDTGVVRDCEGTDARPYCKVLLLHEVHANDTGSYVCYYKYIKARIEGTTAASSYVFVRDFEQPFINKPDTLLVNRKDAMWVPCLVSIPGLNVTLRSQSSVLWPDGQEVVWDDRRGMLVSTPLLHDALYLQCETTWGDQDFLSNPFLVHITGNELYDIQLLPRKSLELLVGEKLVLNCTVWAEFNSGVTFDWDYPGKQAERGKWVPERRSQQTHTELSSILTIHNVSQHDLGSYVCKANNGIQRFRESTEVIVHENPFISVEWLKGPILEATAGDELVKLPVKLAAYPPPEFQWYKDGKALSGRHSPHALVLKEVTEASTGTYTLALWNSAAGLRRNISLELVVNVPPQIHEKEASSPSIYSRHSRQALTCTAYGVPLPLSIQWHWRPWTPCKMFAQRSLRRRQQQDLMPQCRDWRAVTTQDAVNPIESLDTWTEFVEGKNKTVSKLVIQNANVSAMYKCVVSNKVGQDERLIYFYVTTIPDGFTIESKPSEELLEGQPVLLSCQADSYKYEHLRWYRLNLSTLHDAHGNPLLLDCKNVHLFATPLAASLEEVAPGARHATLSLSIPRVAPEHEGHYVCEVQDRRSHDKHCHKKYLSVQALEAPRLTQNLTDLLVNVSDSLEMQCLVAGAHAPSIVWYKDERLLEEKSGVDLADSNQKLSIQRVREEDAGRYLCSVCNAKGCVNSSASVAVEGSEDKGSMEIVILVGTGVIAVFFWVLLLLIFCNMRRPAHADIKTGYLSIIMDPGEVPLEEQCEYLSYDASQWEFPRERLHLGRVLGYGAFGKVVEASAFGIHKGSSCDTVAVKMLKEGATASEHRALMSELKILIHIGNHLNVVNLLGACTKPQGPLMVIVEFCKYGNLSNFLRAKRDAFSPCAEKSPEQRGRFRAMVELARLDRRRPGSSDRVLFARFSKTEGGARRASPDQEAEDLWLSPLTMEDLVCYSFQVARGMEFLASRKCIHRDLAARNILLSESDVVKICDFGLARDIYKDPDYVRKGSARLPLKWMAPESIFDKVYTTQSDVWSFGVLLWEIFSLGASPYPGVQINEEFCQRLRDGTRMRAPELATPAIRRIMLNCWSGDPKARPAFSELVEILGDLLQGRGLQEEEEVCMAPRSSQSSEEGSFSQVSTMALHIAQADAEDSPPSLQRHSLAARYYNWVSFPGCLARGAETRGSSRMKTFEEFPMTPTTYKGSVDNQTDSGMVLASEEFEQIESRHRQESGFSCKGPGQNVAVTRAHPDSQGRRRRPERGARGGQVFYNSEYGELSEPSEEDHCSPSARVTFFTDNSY
kinases (Homo sapiens, UniProt Q9BYT3), sequence (Q9BYT3 whole entry): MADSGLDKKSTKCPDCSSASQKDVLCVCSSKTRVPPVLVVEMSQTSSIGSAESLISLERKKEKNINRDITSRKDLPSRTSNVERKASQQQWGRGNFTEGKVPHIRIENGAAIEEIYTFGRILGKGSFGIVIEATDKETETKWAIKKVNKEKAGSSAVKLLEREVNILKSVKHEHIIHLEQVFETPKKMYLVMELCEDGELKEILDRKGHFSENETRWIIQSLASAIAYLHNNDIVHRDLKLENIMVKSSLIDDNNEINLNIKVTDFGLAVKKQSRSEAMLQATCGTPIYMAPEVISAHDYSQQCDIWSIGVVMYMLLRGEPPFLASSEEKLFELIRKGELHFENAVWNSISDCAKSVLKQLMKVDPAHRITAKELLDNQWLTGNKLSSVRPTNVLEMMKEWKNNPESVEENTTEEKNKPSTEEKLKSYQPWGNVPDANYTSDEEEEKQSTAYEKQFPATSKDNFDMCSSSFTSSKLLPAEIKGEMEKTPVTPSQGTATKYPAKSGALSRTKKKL
kinases (Homo sapiens, UniProt Q15375), sequence (Q15375 28-998): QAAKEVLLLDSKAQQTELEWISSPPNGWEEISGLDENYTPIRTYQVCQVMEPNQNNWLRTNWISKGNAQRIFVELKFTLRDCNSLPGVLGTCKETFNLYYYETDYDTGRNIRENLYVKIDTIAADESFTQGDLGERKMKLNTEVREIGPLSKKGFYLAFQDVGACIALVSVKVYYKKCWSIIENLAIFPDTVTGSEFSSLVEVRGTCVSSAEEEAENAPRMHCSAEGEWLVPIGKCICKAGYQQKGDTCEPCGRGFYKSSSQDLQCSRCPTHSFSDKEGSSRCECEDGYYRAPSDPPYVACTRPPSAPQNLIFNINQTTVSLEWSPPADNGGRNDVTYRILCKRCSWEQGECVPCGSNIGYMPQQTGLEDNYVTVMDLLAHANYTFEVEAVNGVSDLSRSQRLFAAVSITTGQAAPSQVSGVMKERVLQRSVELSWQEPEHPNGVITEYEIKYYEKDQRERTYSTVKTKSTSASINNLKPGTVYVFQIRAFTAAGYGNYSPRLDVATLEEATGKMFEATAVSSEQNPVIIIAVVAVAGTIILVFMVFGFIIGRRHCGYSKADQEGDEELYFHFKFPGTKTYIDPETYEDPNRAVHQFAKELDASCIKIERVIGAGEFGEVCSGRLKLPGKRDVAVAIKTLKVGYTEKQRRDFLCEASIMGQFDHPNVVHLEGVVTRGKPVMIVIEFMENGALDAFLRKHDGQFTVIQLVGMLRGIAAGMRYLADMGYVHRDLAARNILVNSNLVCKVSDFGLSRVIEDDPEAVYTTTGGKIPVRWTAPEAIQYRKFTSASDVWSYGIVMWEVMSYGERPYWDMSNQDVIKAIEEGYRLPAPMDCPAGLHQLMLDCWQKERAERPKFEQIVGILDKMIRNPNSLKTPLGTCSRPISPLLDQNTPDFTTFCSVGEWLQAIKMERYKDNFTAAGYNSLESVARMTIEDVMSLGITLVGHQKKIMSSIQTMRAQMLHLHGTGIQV

| Structure (SMILES) | Mean Inhib (%) [1] | Mean Inhib (%) [2] | Mean Inhib (%) [3] | Mean Inhib (%) [4] | Mean Inhib (%) [5] | Mean Inhib (%) [6] | Mean Inhib (%) [7] | Mean Inhib (%) [8] | Mean Inhib (%) [9] | Mean Inhib (%) [10] | Mean Inhib (%) [11] | Mean Inhib (%) [12] | Mean Inhib (%) [13] | Mean Inhib (%) [14] | Mean Inhib (%) [15] | Mean Inhib (%) [16] | Mean Inhib (%) [17] | Mean Inhib (%) [18] | Mean Inhib (%) [19] | Mean Inhib (%) [20] | further results |
| --- | --- | --- | --- | --- | --- | --- | --- | --- | --- | --- | --- | --- | --- | --- | --- | --- | --- | --- | --- | --- | --- |
| Cc1ccc(NC(=O)c2ccnc(N3CCOCC3)c2)cc1Nc1ccnc(N2CC(C)OC(C)C2)n1 (centres unmarked) [compound 3] | 15.1% | 0.0% | 5.6% | 0.9% | 6.5% | 13.1% | 5.7% | 1.7% | 3.0% | −1.6% | −9.3% | 82.4% | 2.1% | 2.8% | 8.8% | 3.5% | 1.2% | 14.5% | 13.1% | −7.3% | Mean Inhib (%) [21]: 47.6%; Mean Inhib (%) [22]: −0.8%; Mean Inhib (%) [23]: 9.4%; Mean Inhib (%) [24]: 0.9%; Mean Inhib (%) [25]: −0.8%; Mean Inhib (%) [26]: 5.2%; Mean Inhib (%) [27]: 2.2%; Mean Inhib (%) [28]: 0.5% |
| Cc1cc(Oc2ccnc(Nc3ccc(S(N)(=O)=O)cc3)c2)c(-c2ccccn2)nc1C [compound 65] | 1.0% | 16.3% | −4.7% | 9.6% | 10.4% | 18.4% | 11.5% | −6.6% | 9.7% | −3.1% | 8.9% | 1.7% | 1.5% | 2.0% | 2.0% | 11.7% | −0.9% | 12.5% | 5.7% | −6.4% | Mean Inhib (%) [21]: 21.2%; Mean Inhib (%) [22]: 5.3%; Mean Inhib (%) [23]: 67.3%; Mean Inhib (%) [24]: −4.9%; Mean Inhib (%) [25]: 4.2%; Mean Inhib (%) [26]: −1.3%; Mean Inhib (%) [27]: −0.5%; Mean Inhib (%) [28]: 4.9% |
